Values after ≈ are worked out from the molar mass of the structure shown.
Tests used:
[1] = tested on: Prevotella intermedia ATCC 25611; assay: Broth microdilution minimum inhibitory concentration, Prevotella intermedia; type: cell-based; details: for MIC: Prevotella intermedia, ATCC25611, read-out: MIC against Prevotella intermedia
Method: (§1) For anaerobes, 190 μL of sterile, pre-reduced Wilkins Chalgren (WC) anaerobe broth with 0.075% cysteine were added to the first well of the test series in a 96 well plate, followed by 100 μL in each of four additional test wells. Ten μL of filter-sterilized stock solution of licorice CO2 extract, prepared at 40 mg/mL in ethanol, was added to the first well of the series. Contents of the first well were mixed thoroughly and serially diluted (1:1) with the remaining four wells in the series; 100 μL were discarded from the final well in the series. Suspensions of Porphyromanas gingivalis ATCC 33277 or Prevotella. intermedia ATCC 25611, diluted to approximately 1×10^6 cfu (colony forming units) per mL, were added to the test wells in 100 μL quantities. Appropriate growth promotion and sterility controls were included. Plates were incubated at 37° C. anaerobically, until turbidity in the growth control well was observed. The MIC (minimum inhibitory concentration) was recorded as the lowest concentration inhibiting growth of the test organism as viewed with the unaided eye. Streptococcus mutans ATCC 25175 was tested in similar fashion, with Tryptic Soy Broth (TSB) as the test medium and incubation of plates at 37° C. with 5% CO2. Staphylococcus aureus ATCC 6538 was tested using Tryptic Soy Broth (TSB) as the test medium and incubation of plates at 37° C. Aspergillus niger ATCC 16404 was tested, with Tryptic Soy Broth (TSB) as the test medium and incubated at room temperature (25° C.).
(§2) Broth microdilution minimum inhibitory concentration was performed as follows. Ten μL of filter-sterilized stock solution of pure compound, licoricidin or licorisoflavan A, prepared at 1 mg/mL in ethanol, was added to the first well of the series. Contents of the first well were mixed thoroughly and serially diluted (1:1) with the remaining seven wells in the series; 100 μL were discarded from the final well in the series. Suspensions of Porphyromanas gingivalis ATCC 33277 or Prevotella. intermedia ATCC 25611, diluted to approximately 1×10^6 cfu (colony forming units) per mL, were added to the test wells in 100 μL quantities. Appropriate growth promotion and sterility controls were included. Plates were incubated at 37° C. anaerobically, until turbidity in the growth control well was observed. The MIC (minimum inhibitory concentration) was recorded as the lowest concentration inhibiting growth of the test organism as viewed with the unaided eye. Streptococcus mutans ATCC 25175 was tested in similar fashion, with Tryptic Soy Broth (TSB) as the test medium and incubation of plates at 37° C. with 5% CO2.

[2] = tested on: Streptococcus mutans ATCC 25175; assay: Broth microdilution minimum inhibitory concentration, Streptococcus mutans; type: cell-based; details: for MIC: Streptococcus mutans, ATCC25175, read-out: MIC against Streptococcus mutans
Method: as §1, §2

[3] = Anti-inflammatory activity of the isolated components
[4] = tested on: Porphyromanas gingivalis ATCC 33277; assay: Broth microdilution minimum inhibitory concentration, Porphyromonas gingivalis; type: cell-based; details: for MIC: Porphyromonas gingivalis, ATCC33277, read-out: MIC against Porphyromonas gingivalis
Method: as §1, §2

[5] = broth microdilution, anaerobic 37° C., mode of triplicate
[6] = broth microdilution, TSB, 37° C. with 5% CO2, mode of triplicate

Compound	MIC [1, 5] [µg/mL]	antimicrobial activity (MIC) on Streptococcus mutans [2] [µg/mL]	MIC [2, 6] [µg/mL]	activity as anti-inflammatory agents [3]	antimicrobial activity (MIC) against Porphyromonas gingivalis [4] [µg/mL]	MIC [4, 5] [µg/mL]	MIC against Prevotella intermedia (Chlorhexidine, Table 1A) ([1]; column head prints no unit)	MIC against Streptococcus mutans (Chlorhexidine, Table 1A) ([2]; column head prints no unit)	MIC against Porphyromonas gingivalis (Chlorhexidine, Table 1A) ([4]; column head prints no unit)	MIC against Prevotella intermedia [1, 5] [µg/mL]	MIC against Streptococcus mutans [2, 6] [µg/mL]	MIC against Porphyromonas gingivalis [4, 5] [µg/mL]
COc1c(CC=C(C)C)c(O)cc2c1C[C@H](c1ccc(O)c(CC=C(C)C)c1O)CO2 [Licoricidin, licoricidin]	0.78 (≈ 1.84 µM)	3.12	3.12 (≈ 7.36 µM)	excellent activity	0.39	0.39 (≈ 0.919 µM)	–	–	–	–	–	–
[H]/N=C(\N/C(=N/[H])NCCCCCCNC(=N)NC(=N)Nc1ccc(Cl)cc1)Nc1ccc(Cl)cc1 [Chlorhexidine, reference compound]	3.12 (≈ 6.18 µM)	–	1.56 (≈ 3.09 µM)	–	–	6.25 (≈ 12.4 µM)	3.125	1.56	6.25	–	–	–
licorisoflavan A	–	3.12	–	excellent activity	–	–	–	–	–	1.56	3.125	0.78
